Test system: LG0567-F671-PDC complex spheroids viability
Assay: Anticancer human tumor LG0567-F671-PDC patient-derived lung adenocarcinoma cell line growth inhibition [RAS]
Conditions: for IC50: curve of first compound; for viability, T/C: stronger effect = lower value
Excerpt: RAS pathway inhibitors in Combinations in Complex Spheroids
A high-throughput screen of multi-cell type tumor spheroids was designed to identify active combinations of RAS pathway inhibitors and targeted small molecules. Complex spheroids include a stromal component modeled by human endothelial cells (HUVEC) and fibroblasts modeled by human mesenchymal stem cells (MSCs). The concentration ranges selected for each drug and investigational agent were based upon clinically achievable concentrations if the clinical Cmax of the agent was known.
Compounds. The drugs and investigational agents: abemaciclib (NSC768073), cobimetinib (NSC768068), divarasib (GDC6063, NSC841802), docetaxel (NSC628503), GDC-1971 (RLY-1971, NSC841576), gemcitabine (NSC613327), inavolisib (NSC800729), ipatasertib (NSC767898), KB-0742 (NSC834161), MRTX-1133 (NSC836407), osimertinib (NSC779217), RMC-4630 (NSC839698), RMC-6236 (NSC851965), RMC-6291 (NSC852671), Ro-3306 (NSC812927), sapanisertib (NSC764658), SN-38 (NSC673596), staurosporine (NSC755774), SY5609 (NSC837396), and tovorafenib (DAY101, NSC766906), were obtained from the National Cancer Institute (NCI) Developmental Therapeutics Program Chemical Repository. The FDA-approved anticancer drug set is available from the NCI Developmental Therapeutics Program. […] The stock solutions were prepared in dimethyl sulfoxide (DMSO, Sigma-Aldrich, St. Louis, MO, cat. D2650) at 800-fold the tested concentration and stored at -70 degrees C prior to their use. All drugs and investigational agents were tested over a range starting from a high concentration at or near the clinical Cmax and decreasing in half-log increments. If the clinical Cmax for an agent had not been determined, the highest concentration tested was 10 microM.
Cell Culture. All cells were maintained in an incubator at 37 degrees C and 5% CO2 with 95% humidity. The PDC lines were cultured according to standard operating procedures established by the NCI PDMR. All PDCs were thawed and cultured in Matrigel-coated flasks prepared with a working solution of 1X Ham's F-12 nutrient mix, without supplementation (Invitrogen, Waltham, MA, cat. 11765054), 100 U/mL penicillin-streptomycin (Invitrogen, cat. 15140122), and 2.5% Matrigel (Corning Inc., Corning, NY, cat. 354248) for the first three passages. The 362531-283-R-J2-PDC and 782815-120-R-J1-PDC lines were cultured in 6C/Colon 1B media, which includes advanced DMEM/F-12 (Thermo Fisher Scientific, cat. 12634028), 10 mM HEPES (Thermo Fisher Scientific, cat. 15630080), 1X GlutaMAX supplement (Thermo Fisher Scientific, cat. 35050061), 0.1 mg/mL primocin (InvivoGen, San Diego, CA, cat. ant-pm-2), 10% defined fetal bovine serum, heat inactivated (HyClone Laboratories Inc., Logan, UT, cat. SH30070.03HI), 50% L-WRN conditioned media (ATCC, cat. CRL-3276), 1.25 mM N-Acetyl-L-cysteine (Sigma-Aldrich, cat. A9165), 10 mM nicotinamide (Sigma-Aldrich, cat. N0636), 1X B-27 supplement (Thermo Fisher Scientific, cat. 17504044), 1X N-2 supplement (Thermo Fisher Scientific, cat. 17502048), 50 ng/mL human EGF (Thermo Fisher Scientific, cat. PHG0311), and 10 microM Y-27632 dihydrochloride (Tocris Bioscience, cat. 1254). The K12877-001-R-J1-PDC line was cultured in 6I media, which includes all 6C/Colon 1B media plus 10 ng/mL human FGF-10 (PeproTech, cat. 100-26), 1 ng/mL human FGF-2 (PeproTech, cat. 100-18B), 1 µM prostaglandin E2 (Tocris Bioscience, cat. 2296), […] hydrocortisone (Sigma-Aldrich, cat. H4001), and […] bovine insulin (Sigma-Aldrich, cat. I6634). The K86415-001-R-J1-PDC line was cultured in 6D media, which includes all 6C/Colon 1B media components minus the L-WRN conditioned media. The 485176-168-R4-J1-PDC was cultured in PANC media, which includes all 6C/Colon 1B media plus 100 ng/mL human FGF-10 (PeproTech, cat. 100-26), 500 nM SB-431542 (Selleckchem, cat. S1067), and 10 nM gastrin (Tocris Bioscience, cat. 3006). […]

[1] = second compound 0.0316 µM, first compound 0.0316 µM
[2] = second compound 0.0316 µM, first compound 0.1 µM
[3] = second compound 0.0316 µM, first compound 0.316 µM
[4] = second compound 0.0316 µM, first compound 1 µM
[5] = second compound 0.1 µM, first compound 0.0316 µM
[6] = second compound 0.1 µM, first compound 0.1 µM
[7] = second compound 0.1 µM, first compound 0.316 µM
[8] = second compound 0.1 µM, first compound 1 µM
[9] = second compound 0.316 µM, first compound 0.0316 µM
[10] = second compound 0.316 µM, first compound 0.1 µM
[11] = second compound 0.316 µM, first compound 0.316 µM
[12] = second compound 0.316 µM, first compound 1 µM
[13] = second compound 1 µM, first compound 0.0316 µM
[14] = second compound 1 µM, first compound 0.1 µM
[15] = second compound 1 µM, first compound 0.316 µM
[16] = second compound 1 µM, first compound 1 µM
[17] = second compound 3.16 µM, first compound 0.0316 µM
[18] = second compound 3.16 µM, first compound 0.1 µM
[19] = second compound 3.16 µM, first compound 0.316 µM
[20] = second compound 3.16 µM, first compound 1 µM
[21] = second compound 10 µM, first compound 0.0316 µM
[22] = second compound 10 µM, first compound 0.1 µM
[23] = second compound 10 µM, first compound 0.316 µM
[24] = second compound 10 µM, first compound 1 µM
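Further: spheroids exposed to compound for seven days before readout.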
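Wherever IC50 is given: luminescence signal used as a proxy for viable cells.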

## CC(Nc1ccc2c(c1)OCCn1cc(N3C(=O)OCC3C(F)F)nc1-2)C(N)=O (centres undefined) + C#Cc1c(F)ccc2cc(O)cc(-c3ncc4c(N5CC6CCC(C5)N6)nc(OCC56CCCN5CC(F)C6)nc4c3F)c12
Second compound 0.0316 µM
  IC50: 205 nM
Second compound 0.1 µM
  IC50: 211 nM
Second compound 0.316 µM
  IC50: 38.6 nM
Second compound 1 µM
  IC50: < 31.6 nM
Second compound 3.16 µM
  IC50: < 31.6 nM
Second compound 10 µM
  IC50: < 31.6 nM
[1]
  viability, T/C: 77.6%
[2]
  viability, T/C: 56.2%
[3]
  viability, T/C: 46.9%
[4]
  viability, T/C: 38.2%
Second compound 0.0316 µM, first compound 3.16 µM
  viability, T/C: 35%
Second compound 0.0316 µM, first compound 10 µM
  viability, T/C: 31.9%
[5]
  viability, T/C: 73.5%
[6]
  viability, T/C: 62.1%
[7]
  viability, T/C: 43.2%
[8]
  viability, T/C: 32.1%
Second compound 0.1 µM, first compound 3.16 µM
  viability, T/C: 30.7%
Second compound 0.1 µM, first compound 10 µM
  viability, T/C: 26%
[9]
  viability, T/C: 53.1%
[10]
  viability, T/C: 38%
[11]
  viability, T/C: 31.3%
[12]
  viability, T/C: 30.3%
Second compound 0.316 µM, first compound 3.16 µM
  viability, T/C: 28.4%
Second compound 0.316 µM, first compound 10 µM
  viability, T/C: 22.2%
[13]
  viability, T/C: 26.7%
[14]
  viability, T/C: 25.6%
[15]
  viability, T/C: 20.9%
[16]
  viability, T/C: 19.1%
Second compound 1 µM, first compound 3.16 µM
  viability, T/C: 18.3%
Second compound 1 µM, first compound 10 µM
  viability, T/C: 14.8%
[17]
  viability, T/C: 16.6%
[18]
  viability, T/C: 14.6%
[19]
  viability, T/C: 11.5%
[20]
  viability, T/C: 12.6%
Second compound 3.16 µM, first compound 3.16 µM
  viability, T/C: 10%
Second compound 3.16 µM, first compound 10 µM
  viability, T/C: 7.52%
[21]
  viability, T/C: 9.27%
[22]
  viability, T/C: 6.91%
[23]
  viability, T/C: 5.66%
[24]
  viability, T/C: 5.21%
Second compound 10 µM, first compound 3.16 µM
  viability, T/C: 5.4%
Second compound 10 µM, first compound 10 µM
  viability, T/C: 4.6%

## O=C(c1ccc(F)c(F)c1Nc1ccc(I)cc1F)N1CC(O)([C@@H]2CCCCN2)C1 + C#Cc1c(F)ccc2cc(O)cc(-c3ncc4c(N5CC6CCC(C5)N6)nc(OCC56CCCN5CC(F)C6)nc4c3F)c12
Second compound 0.0316 µM
  IC50: 13.6 nM
Second compound 0.1 µM
  IC50: 8.46 nM
Second compound 0.316 µM
  IC50: 5.19 nM
Second compound 1 µM
  IC50: < 3.16 nM
Second compound 3.16 µM
  IC50: < 3.16 nM
Second compound 10 µM
  IC50: < 3.16 nM
Second compound 0.0316 µM, first compound 0.00316 µM
  viability, T/C: 80.2%
Second compound 0.0316 µM, first compound 0.01 µM
  viability, T/C: 53.4%
[1]
  viability, T/C: 37%
[2]
  viability, T/C: 23%
[3]
  viability, T/C: 10.1%
[4]
  viability, T/C: 3.93%
Second compound 0.1 µM, first compound 0.00316 µM
  viability, T/C: 64.2%
Second compound 0.1 µM, first compound 0.01 µM
  viability, T/C: 45.9%
[5]
  viability, T/C: 35.4%
[6]
  viability, T/C: 19.2%
[7]
  viability, T/C: 10.7%
[8]
  viability, T/C: 3.38%
Second compound 0.316 µM, first compound 0.00316 µM
  viability, T/C: 52.8%
Second compound 0.316 µM, first compound 0.01 µM
  viability, T/C: 46.8%
[9]
  viability, T/C: 30.7%
[10]
  viability, T/C: 17.1%
[11]
  viability, T/C: 9.98%
[12]
  viability, T/C: 3.87%
Second compound 1 µM, first compound 0.00316 µM
  viability, T/C: 34.5%
Second compound 1 µM, first compound 0.01 µM
  viability, T/C: 28%
[13]
  viability, T/C: 21.3%
[14]
  viability, T/C: 12.1%
[15]
  viability, T/C: 6.87%
[16]
  viability, T/C: 3.06%
Second compound 3.16 µM, first compound 0.00316 µM
  viability, T/C: 17.3%
Second compound 3.16 µM, first compound 0.01 µM
  viability, T/C: 14.1%
[17]
  viability, T/C: 16.4%
[18]
  viability, T/C: 7.89%
[19]
  viability, T/C: 3.15%
[20]
  viability, T/C: 2.12%
Second compound 10 µM, first compound 0.00316 µM
  viability, T/C: 10.5%
Second compound 10 µM, first compound 0.01 µM
  viability, T/C: 7.59%
[21]
  viability, T/C: 5.41%
[22]
  viability, T/C: 2.84%
[23]
  viability, T/C: 1.91%
[24]
  viability, T/C: 1.49%
